RP-LC retention time data for 79 compounds are collected here from the METLIN SMRT retention time set (Domingo-Almenara et al. 2019).

Each structure is given as a SMILES string.

This data set in a line: gradient 5% acetonitrile 3 min, to 50% in 2 min, to 85% in 15 min, held 3 min, 100 µL/min. The settings on record: column: Zorbax Extend-C18 2.1 x 50 mm; eluents: water / acetonitrile, 0.1% formic acid. In a few lines:
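Using water and acetonitrile that each contained 0.1% formic acid, mixtures of ~100 pure standards were separated at 100 μL/min on a Zorbax Extend-C18 column (2.1 × 50 mm, 1.8 μm). The HPLC fed a quadrupole time-of-flight mass spectrometer working in positive and negative ionization mode, with dead and dwell volumes of 40 μL and 900 μL. Data were acquired over 3 months. Retention time was read from computationally picked adduct peaks after manual inspection of each.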
As for `O=C(COc1ccccc1-c1nnc(-c2ccccc2)o1)Nc1ccc2c(c1)OCCO2`, the RP-LC retention time worked out at 1160 s.

With `CCc1cccc(C)c1Nc1c(-c2cccc(O)c2)nc2cnccn12`, the RP-LC retention time came out at 750 s.

In turn, `CN1CCN(CCCNC(=O)CN2C(=O)C3CCCCN3c3ccc(C(=O)N4CCCC4)cc32)CC1` (centres undefined) showed an RP-LC retention time of 579 s.

With `Cc1ccc(-c2nnc(Cc3nc(-c4cccc(F)c4)no3)o2)cc1`, the RP-LC retention time was determined as 1060 s.

Regarding `Cc1cc2n(n1)CCCN2Cc1ccc(C(=O)NCCCN2CCCC2=O)cc1`, the RP-LC retention time came out at 587 s.

In turn, `O=C(Cc1ccc(Cl)cc1)NCC1CCN(C2CCCC2)CC1` displayed an RP-LC retention time of 566 s.

`COc1ccc2c(c1)C1CC(C)(O2)N(C)C(=O)C1S(=O)(=O)c1ccc(C)c(C)c1` (centres undefined) registered an RP-LC retention time of 1030 s.

As for `Cc1cccc(NS(=O)(=O)c2cn(C(C)C)c3ncccc23)c1C`, the RP-LC retention time was found to be 946 s.

Consider `CCCn1cnnc1C1CCCCN1S(=O)(=O)c1cccc(C#N)c1` (centres undefined), for which the RP-LC retention time stood at 748 s.

Consider `CCC(C)Sc1nnc(NC(=O)C2CCN(C(=O)c3cccc(F)c3)CC2)s1` (centres undefined), for which the RP-LC retention time was 877 s.

Compound `Cc1ccc(CNC(=O)C2(C)CCCN(C(=O)NCc3ccc(F)cc3)C2)cc1` (centres undefined) showed an RP-LC retention time of 864 s.

Consider `Cc1ccc(S(=O)(=O)c2cnc(N3CCN(c4cccc(C)c4)CC3)nc2N)cc1`, for which the RP-LC retention time worked out at 1130 s.

In turn, `COCCC1CCN(C(=O)CN(C)C(=O)c2n[nH]c3ccccc23)CC1` showed an RP-LC retention time of 661 s.

The compound `Cc1ccccc1CC(=O)N1CCN(c2nc(CN3CCOCC3)cs2)CC1` came in with an RP-LC retention time of 636 s.

In turn, `CN(CCc1noc(-c2ccc(C(=O)N3CCCC3)cc2)n1)C(=O)Cc1ccc(Cl)cc1` showed an RP-LC retention time of 816 s.

As for `CC(C)(C)NC(=O)N[C@H](C(=O)N1C[C@H]2[C@@H]([C@H]1C(=O)NC(CC1CCC1)C(=O)C(N)=O)C2(C)C)C(C)(C)C` (some centres undefined), the RP-LC retention time amounted to 1020 s.

Compound `COc1ccccc1CC(=O)N1C[C@@H]2C[C@H]1C[C@@H]2NC(=O)c1ccccc1` came in with an RP-LC retention time of 729 s.

`Cn1cc2c3c(cccc31)CN(C(=O)Cc1ccc(Cl)cc1)CC2` had an RP-LC retention time of 986 s.

`O=S(=O)(Nc1cccc(F)c1)c1ccc2nncn2c1`: the RP-LC retention time was 657 s.

Turning to `O=C(CSc1cc(N2CCN(c3ccccc3F)CC2)ncn1)NCc1cccs1`, the RP-LC retention time turned out to be 931 s.

As for `Cc1nn(-c2ccccc2)c(C)c1S(=O)(=O)N1CCC(C(=O)NCCc2ccccc2)CC1`, the RP-LC retention time was determined as 812 s.

The compound `Fc1ccc(OCc2nc(-c3cccc(-c4ccn[nH]4)c3)no2)cc1` showed an RP-LC retention time of 939 s.

Compound `CC(C)NC(=O)CN1CCN(c2cc(C(=O)O)c3cc(NC(=O)c4ccc(F)cc4)ccc3n2)CC1` registered an RP-LC retention time of 603 s.

Take `O=C(NCc1csc(-c2ccccc2)n1)C1CCN(S(=O)(=O)c2cccs2)CC1`: the RP-LC retention time came out at 872 s.

The compound `COC(=O)C(C)NC(=O)NCc1cccn1Cc1ccccc1` (centres undefined) returned an RP-LC retention time of 794 s.

As to `CN1c2ccc(F)cc2C(=O)NC12CCN(C(=O)Cc1ccccc1Cl)CC2`, the RP-LC retention time worked out at 774 s.

For `CCS(=O)(=O)N1CC(F)(F)C[C@H]1c1nc(-c2cccnc2)no1`, the RP-LC retention time is 743 s.

As to `Cc1cccc(C)c1NC(=O)Cn1nc2c(Oc3cccc(F)c3)nccn2c1=O`, the RP-LC retention time turned out to be 825 s.

As to `COc1cccc(Nc2c(-c3ccc(N(C)C)cc3)nc3cnccn23)c1`, the RP-LC retention time was determined as 771 s.

As for `CN(CCc1noc(COc2ccccc2F)n1)C(=O)c1c(F)cccc1F`, the RP-LC retention time amounted to 885 s.

In turn, `CCOCCOC(=O)C1=C(C)NC2=C(C(=O)CC(C)(C)C2)C1c1cccc(OC)c1OC` (centres undefined) showed an RP-LC retention time of 791 s.

As to `CCc1noc([C@@H]2CC(F)(F)CN2C(=O)CCn2ccnc2)n1`, the RP-LC retention time is 590 s.

`Cc1ccc2cc(CCC(=O)N3CCCN(c4ncccn4)CC3)c(=O)[nH]c2c1`: the RP-LC retention time turned out to be 676 s.

Regarding `Cc1ccc(CNC(=O)N2CCc3nc(-c4ccc(F)cc4)ncc3C2)cc1`, the RP-LC retention time turned out to be 952 s.

With `CN(C)C(=O)C1CCN(c2nc3ccc(-c4cccc(F)c4)nc3s2)CC1`, the RP-LC retention time amounted to 905 s.

Compound `COc1ccccc1NC(=O)Cn1c(-c2nc(C(C)C)no2)cccc1=O` displayed an RP-LC retention time of 927 s.

For the compound `COc1ccc(-c2ccc(=O)n(CCCC(=O)Nc3ccccc3C(N)=O)n2)cc1OC`, the RP-LC retention time was found to be 619 s.

`O=C(Nc1ccccc1)N1CCCC1c1nc(-c2cccc(Cl)c2)no1` (centres undefined) registered an RP-LC retention time of 1030 s.

In the case of `COc1ccc(-n2c(=O)n(C)c(=O)c3cc(C(=O)NCc4ccccc4)cnc32)cc1`, the RP-LC retention time came to 849 s.

In turn, `O=C(CN1C(=O)C2CCCCN2c2ccc(C(=O)N3CCCC3)cc21)Nc1cccc(Cl)c1` (centres undefined) displayed an RP-LC retention time of 676 s.

With `Cc1cc(N2CCN(C)CC2)nc2ccc(NC(=S)NCc3ccc(F)cc3)cc12`, the RP-LC retention time worked out at 599 s.

The compound `Cc1ccc(NC(=O)N2CCC(N3CCN(Cc4ccccc4)C(=O)C3=O)CC2)cc1Cl` yielded an RP-LC retention time of 809 s.

`O=C(c1noc2ccc(S(=O)(=O)N3CCN(c4ccccn4)CC3)cc12)N1CCCCC1` displayed an RP-LC retention time of 703 s.

`CCc1nnc2cc(N3CCN(S(=O)(=O)c4ccc(C(C)C)cc4)CC3)cnn12` gave an RP-LC retention time of 820 s.

On to `CNC(=O)C1CCCN(c2nc3ncn(CC(=O)Nc4ccc(Cl)cc4)c(=O)c3s2)C1` (centres undefined), for which the RP-LC retention time turned out to be 685 s.

For `COc1ccc(-n2ncc3c(=O)n(Cc4nc(-c5cccc(OC)c5)no4)cnc32)cc1`, the RP-LC retention time was determined as 984 s.

In the case of `N#Cc1ccc(Cl)cc1NC(=O)c1ccc(N2CCOCC2)nn1`, the RP-LC retention time was 843 s.

In turn, `Cc1ccc(Cl)cc1NC(=O)N1CCCC1c1nc(-c2ccccc2C)no1` (centres undefined) showed an RP-LC retention time of 1120 s.

For `CCn1nc(-c2ccc(OC)c(S(=O)(=O)N3CCC(C(N)=O)CC3)c2)c2c(c1=O)CCCC2`, the RP-LC retention time was found to be 663 s.

`C=CCN1CCc2cc(O)c(O)cc2C(c2ccccc2)C1` (centres undefined) displayed an RP-LC retention time of 652 s.

`CC(=O)N1CCc2cc(N3CC(C(=O)NCc4ccccc4Cl)CC3=O)ccc21` (centres undefined) registered an RP-LC retention time of 708 s.

`O=C1CCCc2cc(S(=O)(=O)N3CCC(C(=O)NC4CCCCCCC4)CC3)ccc2N1` returned an RP-LC retention time of 814 s.

On to `CCCn1c(C)cnc1C1CN(S(=O)(=O)c2cc(Cl)ccc2Cl)C1`, for which the RP-LC retention time amounted to 607 s.

Compound `Cn1cc(S(=O)(=O)N2CCC(C(=O)Nc3nccs3)CC2)cc1C(=O)N1CCCC1` showed an RP-LC retention time of 662 s.

The compound `Cc1cccc2nnc(N3CCC(C(=O)NCc4ccccc4)CC3)n12` showed an RP-LC retention time of 660 s.

Compound `CN(CCCNC(=O)c1ccc2c(c1)NC(=O)C1CCCCN21)C1CCCCC1` (centres undefined) showed an RP-LC retention time of 623 s.

With `CCn1c(=O)c(C)nc2cc(-c3noc(-c4cccc(Cl)c4)n3)ccc21`, the RP-LC retention time is 1220 s.

As for `CCc1ccc(-c2nc(C3CC(=O)N(c4ccc(OC)cc4)C3)no2)cc1` (centres undefined), the RP-LC retention time is 1090 s.

In turn, `O=C(CN1CCN(C(=O)COc2ccc(Cl)cc2Cl)CC1)c1cccs1` displayed an RP-LC retention time of 630 s.

`COc1ccc(N2CCN(c3cc(SCC(=O)Nc4ccc(C)cc4F)ncn3)CC2)cc1` gave an RP-LC retention time of 1110 s.

For `O=C(NCc1ccccc1Br)C1CCN(c2nnc(-c3ccccc3)o2)CC1`, the RP-LC retention time was 880 s.

Take `CCOc1cccc(-c2noc(Cn3ccnc3CC)n2)c1`: the RP-LC retention time is 668 s.

Consider `O=C(CCSc1ccccc1)N1CCN(CC(F)(F)F)CC1`, for which the RP-LC retention time turned out to be 870 s.

As to `CCc1noc(NC(C)=O)c1-c1ccc(C)c(S(=O)(=O)NCc2ccccc2)c1`, the RP-LC retention time was found to be 836 s.

For the compound `CCOc1ccccc1N1CCN(c2cc(C(=O)O)c3cc(NC(=O)C4CCC4)ccc3n2)CC1`, the RP-LC retention time was 864 s.

For the compound `COC(=O)C1=CN(c2cccc(Cl)c2)c2ccc(F)cc2S1(=O)=O`, the RP-LC retention time worked out at 895 s.

Regarding `CCOC(=O)c1noc2ncnc(N(CC)c3ccccc3)c12`, the RP-LC retention time worked out at 948 s.

For the compound `COc1cccc(-c2cc(=O)c3ccccc3o2)c1N`, the RP-LC retention time turned out to be 948 s.

`Cc1cc(C(=O)Nc2ccc(F)cc2)nc2ccnn12` yielded an RP-LC retention time of 889 s.

The compound `Cc1cc(=O)n(CC(=O)NCc2ccc(F)cc2F)c(N2CCOCC2)n1` yielded an RP-LC retention time of 756 s.

`COc1cccc(C(=O)NC2CCN(c3ccc(C)c(C)c3)C2=O)c1` (centres undefined) had an RP-LC retention time of 869 s.

Take `COc1cccc(NC(=O)C2CCN(S(C)(=O)=O)c3ccccc3O2)c1` (centres undefined): the RP-LC retention time amounted to 810 s.

`O=C(NCc1ccc(S(=O)(=O)c2cc(F)cc(F)c2)cc1)c1ccc2nccn2c1`: the RP-LC retention time stood at 724 s.

In the case of `CCc1ccc(Nc2ncccc2S(N)(=O)=O)cc1`, the RP-LC retention time worked out at 891 s.

Take `O=C(NCCC1CCN(C(=O)Nc2cc(F)ccc2F)CC1)C1CC1`: the RP-LC retention time stood at 715 s.

`Cc1cc(/C=C2\SC(=S)NC2=O)cc(C)c1O` returned an RP-LC retention time of 906 s.

The compound `Cc1nn(Cc2nc(-c3ccc(NC(=O)c4ccsc4)cc3)oc2C)c(C)c1C` registered an RP-LC retention time of 955 s.

Consider `O=C1C2N=NN(c3ccc(F)cc3)C2C(=O)N1c1ccccc1` (centres undefined), for which the RP-LC retention time was determined as 914 s.

In the case of `CC(=O)N1N=C(c2ccc(Br)cc2)CC1c1ccc2ncccc2c1` (centres undefined), the RP-LC retention time stood at 677 s.
